Where two headings read alike, the source gives them in different places.
Experiments:
[1] = biological target: T1, rat histamine H3 receptor (Rattus norvegicus, UniProt Q9QYN8); assay: Rat H3 radioligand binding ([3H]-N-alpha-methylhistamine, SPA)
T1 construct: encoding the entire 445-amino-acid rat histamine H3 receptor; expressed in transfected cells; membrane preparation
How it was run: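 Membranes from CHO-A3 cells stably expressing full-length rat H3 receptor (10 μg protein/well) incubated 4 h at room temperature, protected from light, with ~1 nM [3H]-N-alpha-methylhistamine and compound (0.01 nM-30 μM) in 50 mM Tris HCl pH 7.4, 5 mM MgCl2, 0.1% BSA. Binding read by SPA; 10 μM clobenpropit defined non-specific binding.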

[2] = biological target: T2, human H3 receptor (Homo sapiens, UniProt Q9Y5N1); assay: Human H3 radioligand binding ([3H]-N-alpha-methylhistamine, SPA)
T2 construct: expressed in transfected cells
How it was run: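 SPA competition binding on membranes from CHO cells stably expressing human H3 receptor (10 μg protein/well) with ~1 nM [3H]-N-alpha-methylhistamine and compound at 0.01 nM-30 μM. Incubation 4 h at room temperature in 50 mM Tris-HCl pH 7.4, 5 mM MgCl2, 0.1% BSA; non-specific binding defined with 10 μM clobenpropit.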

[3] = rat H3 binding, Table D, read-out: Rat H3 Ki
[4] = human H3 binding, Table D, read-out: Human H3 Ki
[5] = Rat H3 binding, Table B, Examples 136-362, read-out: rat H3 binding Ki
[6] = Human H3 binding, Table B, Examples 136-362, read-out: hum H3 binding Ki
[7] = Table C, rat H3 binding, read-out: Rat H3 Ki
[8] = Table C, human H3 binding, read-out: Human H3 Ki
[9] = Table A, rat H3 binding, read-out: Rat Ki
[10] = Table A, human H3 binding, read-out: Human Ki

T1 sequence (Q9QYN8 whole entry): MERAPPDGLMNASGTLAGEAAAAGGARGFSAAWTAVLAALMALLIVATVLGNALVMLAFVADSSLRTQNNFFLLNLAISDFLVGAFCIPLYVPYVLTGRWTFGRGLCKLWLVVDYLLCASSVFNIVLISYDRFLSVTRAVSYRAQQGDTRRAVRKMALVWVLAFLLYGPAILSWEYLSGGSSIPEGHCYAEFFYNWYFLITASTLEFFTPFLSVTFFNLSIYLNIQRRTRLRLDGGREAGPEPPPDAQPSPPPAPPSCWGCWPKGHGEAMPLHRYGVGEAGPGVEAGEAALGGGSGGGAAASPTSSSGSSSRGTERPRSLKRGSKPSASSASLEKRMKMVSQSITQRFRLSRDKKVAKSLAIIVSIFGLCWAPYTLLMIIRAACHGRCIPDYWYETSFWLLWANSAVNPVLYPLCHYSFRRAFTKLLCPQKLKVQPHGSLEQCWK
T2 sequence (Q9Y5N1 whole entry): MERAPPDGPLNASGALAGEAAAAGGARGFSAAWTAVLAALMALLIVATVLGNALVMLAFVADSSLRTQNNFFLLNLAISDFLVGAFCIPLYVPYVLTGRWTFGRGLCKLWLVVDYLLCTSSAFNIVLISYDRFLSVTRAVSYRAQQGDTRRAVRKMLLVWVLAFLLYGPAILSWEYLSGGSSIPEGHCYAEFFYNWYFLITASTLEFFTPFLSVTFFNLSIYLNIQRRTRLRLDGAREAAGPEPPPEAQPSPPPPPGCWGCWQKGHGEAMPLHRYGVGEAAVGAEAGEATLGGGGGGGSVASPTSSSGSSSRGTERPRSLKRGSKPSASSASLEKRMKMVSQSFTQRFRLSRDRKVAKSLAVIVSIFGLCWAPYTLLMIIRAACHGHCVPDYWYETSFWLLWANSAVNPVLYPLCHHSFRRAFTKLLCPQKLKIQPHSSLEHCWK

SMILES	melting point	Ki [1, 5]	Ki [2, 6]	other results
CN(C)C(=O)c1cc(COc2ccc3c(c2)CCC2(CCN(C4CCC4)CC2)O3)ccn1 [Example 623]	165 to 167 °C			Ki [1, 3]: < 200 nM; Ki [2, 4]: < 200 nM
CCOC(=O)c1ccc(NC(=O)Nc2ccc3c(c2)COC2(CCN(C4CCC4)CC2)O3)cc1 [Example 208]	188 to 189 °C	200 to 1000 nM	< 200 nM	
CNC(=O)c1ccc(-c2ccc3c(c2)CCC2(CCN(C4CCC4)CC2)O3)cc1Cl [Example 232]	144.2 °C	< 200 nM	< 200 nM	
O=c1[nH]cc(-c2ccc3c(c2)COC2(CCN(C4CCC4)CC2)O3)cc1F [Example 727]	200 to 202 °C			Ki [1, 3]: < 200 nM; Ki [2, 4]: < 200 nM
c1cc2c(cc1OCC1CC1)CCC1(CCN(C3CCC3)C1)O2 (stereo not drawn) [Example 446]	177 to 178 °C			Ki ([1]; read-out: Rat H3 kI): 200 to 1000 nM; Ki ([2]; read-out: Human H3 Ki): 200 to 1000 nM
CCc1cc(-c2ccc3c(c2)COC2(CCN(C4CCC4)CC2)O3)c(C)[nH]c1=O [Example 808]	211 to 213 °C			Ki [1, 3]: < 200 nM; Ki [2, 4]: < 200 nM
CCn1cc(-c2ccc3c(c2)COC2(CCN(C4CCC4)CC2)O3)ccc1=O [Example 778]	156 to 158 °C			Ki [1, 3]: < 200 nM; Ki [2, 4]: < 200 nM
O=c1ccc(C(O)c2ccc3c(c2)COC2(CCN(C4CCC4)CC2)O3)c[nH]1 (stereo not drawn) [Example 526]	217 to 219 °C			Ki ([1]; read-out: Rat H3 kI): < 200 nM; Ki ([2]; read-out: Human H3 Ki): < 200 nM
CC(C)n1cc(-c2ccc3c(c2)COC2(CCN(C4CCC4)CC2)O3)ccc1=O [Example 719]	176 to 177 °C			Ki [1, 3]: < 200 nM; Ki [2, 4]: < 200 nM
O=C(Nc1ccc2c(c1)COC1(CCN(C3CCC3)CC1)O2)c1ccc2[nH]cnc2c1 [Example 326]	235 to 237 °C	< 200 nM	< 200 nM	
COc1cnc(-c2ccc3c(c2)COC2(CCN(C4CCC4)CC2)O3)nc1 [Example 470]	113 to 115 °C			Ki ([1]; read-out: Rat H3 kI): < 200 nM; Ki ([2]; read-out: Human H3 Ki): < 200 nM
O=S1(=O)CCN(c2ccc3c(c2)CCC2(CCN(C4CCC4)CC2)O3)CC1 [Example 406]	> 285 °C (dec.)			Ki [1, 7]: < 200 nM; Ki [2, 8]: < 200 nM
CN(C)C(=O)c1ccc(Nc2ccc3c(c2)COC2(CCN(C4CCC4)CC2)O3)cc1 [Example 169]	66 to 74 °C	< 200 nM	< 200 nM	
COC(=O)N1CCN(c2ccc3c(c2)CCC2(CCN(C4CCC4)CC2)O3)CC1 [Example 373]	157 to 158 °C			Ki [1, 7]: < 200 nM; Ki [2, 8]: < 200 nM
COC[C@H](C)NC(=O)c1ccc(-c2ccc3c(c2)CCC2(CCN(C4CCC4)CC2)O3)cc1Cl [Example 591]	120 to 122 °C			Ki [1, 3]: < 200 nM; Ki [2, 4]: < 200 nM
COc1nc(C)ccc1-c1ccc2c(c1)COC1(CCN(C3CCC3)CC1)O2 [Example 746]	61 to 63 °C			Ki [1, 3]: < 200 nM; Ki [2, 4]: < 200 nM
O=C(c1ccc(-c2ccc3c(c2)COC2(CCN(C4CCC4)CC2)O3)cc1F)N1CCOCC1 [Example 642]	161 to 162 °C			Ki [1, 3]: < 200 nM; Ki [2, 4]: < 200 nM
O=C(c1cccc(-c2ccc3c(c2)OC2(CCN(C4CCC4)CC2)OC3)c1)N1CCOCC1 [Example 96]	61 °C			Ki [1, 9]: 200 to 1000 nM; Ki [2, 10]: 200 to 1000 nM
O=C(NC1CCOCC1)c1ccc(-c2ccc3c(c2)COC2(CCN(C4CCC4)CC2)O3)cc1 [Example 362]	216 to 218 °C	< 200 nM	< 200 nM	
c1ccc(Nc2ccc3c(c2)OC2(CCN(C4CCC4)CC2)O3)cc1 [Example 170]	238 to 240 °C	< 200 nM	< 200 nM	
O=c1ccc(N2CCN(c3ccc4c(c3)CCC3(CCN(C5CCC5)CC3)O4)CC2)n[nH]1 [Example 419]	278 to 280 °C			Ki [1, 7]: < 200 nM; Ki [2, 8]: < 200 nM
O=S1(=O)CCC(C(O)c2ccc3c(c2)COC2(CCN(C4CCC4)CC2)O3)CC1 (stereo not drawn) [Example 511]	127 to 129 °C			Ki ([1]; read-out: Rat H3 kI): < 200 nM; Ki ([2]; read-out: Human H3 Ki): < 200 nM
CC(=O)N1CCN(c2ccc3c(c2)COC2(CCN(C4CCC4)CC2)O3)CC1 [Example 283]	60.8 to 62.3 °C	< 200 nM	< 200 nM	
CNC(=O)c1ccc(OC2CCN(c3ccc4c(c3)CCC3(CCN(C5CCC5)CC3)O4)CC2)nc1 [Example 439]	214 to 216 °C			Ki [1, 7]: < 200 nM; Ki [2, 8]: < 200 nM
OCCn1cc(-c2ccc3c(c2)CCC2(CCN(C4CCC4)CC2)O3)cn1 [Example 198]	101 to 103 °C	< 200 nM	< 200 nM	
CCSc1c[nH]c(=O)cc1-c1ccc2c(c1)COC1(CCN(C3CCC3)CC1)O2 [Example 765]	85 to 88 °C			Ki [1, 3]: < 200 nM; Ki [2, 4]: < 200 nM

Continued, in another order:

melting point	Ki [1, 5]	Ki [2, 6]	SMILES	other results
208 to 210 °C	< 200 nM	< 200 nM	CNC(=O)c1ccc(-c2ccc3c(c2)COC2(CCN(C4CCC4)CC2)O3)cn1 [Example 160]	
172 to 174 °C	< 200 nM	< 200 nM	O=C(Nc1ccc2c(c1)COC1(CCN(C3CCC3)CC1)O2)c1ccccn1 [Example 152]	
233 to 235 °C			O=C1CCC(c2ccc3c(c2)COC2(CCN(C4CCC4)CC2)O3)CN1 (stereo not drawn) [Example 530]	Ki ([1]; read-out: Rat H3 kI): < 200 nM; Ki ([2]; read-out: Human H3 Ki): < 200 nM
191 to 193 °C			Cc1[nH]c(=O)ccc1-c1ccc2c(c1)COC1(CCN(C3CCC3)CC1)O2 [Example 736]	Ki [1, 3]: < 200 nM; Ki [2, 4]: < 200 nM
78.6 to 80.4 °C	< 200 nM	< 200 nM	O=C(NCCO)c1c(F)cc(-c2ccc3c(c2)COC2(CCN(C4CCC4)CC2)O3)cc1F [Example 261]	
172 to 173 °C			CNC(=O)c1ccc(-c2ccc3c(n2)COC2(CCN(C4CCC4)CC2)O3)cc1F [Example 133]	Ki [1, 9]: < 200 nM; Ki [2, 10]: < 200 nM
186 to 187 °C		< 200 nM	CN1CCN(c2ccc3c(c2)OC2(CCN(C4CCC4)CC2)O3)C1=O [Example 151]	Ki ([1]; Rat H3 binding, Table B, given as numeric bound instead of class symbol, read-out: rat H3 binding Ki): > 300 nM
213 to 215 °C	< 200 nM	< 200 nM	Cc1cccc(Oc2ccc3c(c2)CCC2(CCN(C4CCC4)CC2)O3)n1 [Example 268]	
70.2 to 71 °C	< 200 nM	< 200 nM	CO[C@H]1CCN(C(=O)c2ccc(-c3ccc4c(c3)CCC3(CCN(C5CCC5)CC3)O4)cc2)C1 [Example 211]	
105 to 107 °C			Cc1nc2cccc(Cl)c2c(=O)n1-c1ccc2c(c1)COC1(CCN(C3CCC3)CC1)O2 [Example 801]	Ki [1, 3]: < 200 nM; Ki [2, 4]: < 200 nM
150 to 152 °C	< 200 nM	< 200 nM	COC1CCN(C(=O)c2ccc(-c3ccc4c(c3)CCC3(CCN(C5CCC5)CC3)O4)cn2)CC1 [Example 251]	
162 to 163 °C			C1=C(c2ccc3c(c2)COC2(CCN(C4CCC4)CC2)O3)CCSC1 [Example 466]	Ki ([1]; read-out: Rat H3 kI): < 200 nM; Ki ([2]; read-out: Human H3 Ki): < 200 nM
54 °C			CCOc1ccc(-c2ccc3c(c2)OC2(CCN(C4CCC4)CC2)OC3)cn1 [Example 95]	Ki [1, 9]: > 1000 nM; Ki [2, 10]: > 1000 nM
205 to 206 °C			O=c1cc(COc2ccc3c(c2)CCC2(CCN(C4CCC4)CC2)O3)cc[nH]1 [Example 663]	Ki [1, 3]: < 200 nM; Ki [2, 4]: < 200 nM
261 to 263 °C			c1cc2c(cc1O[C@@H]1CCOC1)CCC1(CCN(C3CCC3)CC1)O2 [Example 443]	Ki [1, 7]: 200 to 1000 nM; Ki [2, 8]: < 200 nM
249 to 250 °C			c1cc2c(cc1C1CCOC1)COC1(CCN(C3CCC3)CC1)O2 (stereo not drawn) [Example 507]	Ki ([1]; read-out: Rat H3 kI): < 200 nM; Ki ([2]; read-out: Human H3 Ki): < 200 nM
138 to 140 °C			Cn1cc2c(n1)CCC(c1ccc3c(c1)COC1(CCN(C4CCC4)CC1)O3)C2 (stereo not drawn) [Example 469]	Ki ([1]; read-out: Rat H3 kI): < 200 nM; Ki ([2]; read-out: Human H3 Ki): < 200 nM
130 to 132 °C	< 200 nM	< 200 nM	CC(C)C(=O)N1CCC(COc2ccc3c(c2)CCC2(CCN(C4CCC4)CC2)O3)CC1 [Example 357]	
237 to 238 °C	< 200 nM	< 200 nM	O=C(Nc1ccc(F)cc1)Nc1ccc2c(c1)COC1(CCN(C3CCC3)CC1)O2 [Example 248]	
191 to 192 °C	< 200 nM	< 200 nM	CC(C)NC(=O)c1ccc(-c2ccc3c(c2)CCC2(CCN(C4CCC4)CC2)O3)cc1 [Example 302]	
174 to 176 °C			OC1(c2ccc3c(c2)COC2(CCN(C4CCC4)CC2)O3)CCSCC1 [Example 465]	Ki ([1]; read-out: Rat H3 kI): < 200 nM; Ki ([2]; read-out: Human H3 Ki): < 200 nM
276 to 278 °C			CC(=O)N1CCCN(c2ccc3c(c2)CCC2(CCN(C4CCC4)CC2)O3)CC1 [Example 395]	Ki [1, 7]: < 200 nM; Ki [2, 8]: < 200 nM
76.4 to 78.4 °C			Cc1nnc(C2CC=C(c3ccc4c(c3)COC3(CCN(C5CCC5)CC3)O4)CC2)o1 (stereo not drawn) [Example 689]	Ki [1, 3]: < 200 nM; Ki [2, 4]: < 200 nM

Source: patent US8513232B2, “Substituted spirocyclic piperidine derivatives as histamine-3 (H3) receptor ligands” (Cephalon, Inc., priority 2008, dated 2013)
